Experimental data published in ChEMBL document CHEMBL1201862, “PubChem BioAssay data set” (2004).
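Assay format: 96-well plates, 48-hour exposure. Here, GI50 denotes the concentration required for 50% inhibition of growth.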 Active and inactive are the calls of the source. Cut-off read from the data, not from the text of the source: active = GI50 up to about 1.1 µM and inactive = higher.

Columns and labels:
Assay in all cases: DTP human tumour cell line panel, 48 h
Malme-3M = system: Malme-3M
SF-539 = system: SF-539
UO-31 = system: UO-31
SF-295 = system: SF-295
HCT-116 = system: HCT-116
KM12 = system: KM12
NCI-H522 = system: NCI-H522
M19-MEL = system: M19-MEL
HT-29 = system: HT-29
SNB-75 = system: SNB-75
NCI-H23 = system: NCI-H23
LOX IMVI = system: LOX IMVI
A498 = system: A498
DMS-273 = system: DMS-273
A549 = system: A549
786-0 = system: 786-0
MOLT-4 = system: MOLT-4
HOP-92 = system: HOP-92
SNB-19 = system: SNB-19
LXFL 529 = system: LXFL 529
NCI-H460 = system: NCI-H460
SK-MEL-28 = system: SK-MEL-28
HL-60 = system: HL-60
NCI-H226 = system: NCI-H226
IGROV-1 = system: IGROV-1
RXF 393 = system: RXF 393
M14 = system: M14
OVCAR-4 = system: OVCAR-4
SK-MEL-2 = system: SK-MEL-2
SK-MEL-5 = system: SK-MEL-5
OVCAR-8 = system: OVCAR-8
TK-10 = system: TK-10
SN12C = system: SN12C
RPMI-8226 = system: RPMI-8226
XF498 = system: XF498
SW-620 = system: SW-620
DMS-114 = system: DMS-114
HCT-15 = system: HCT-15
UACC-257 = system: UACC-257
SR = system: SR
HOP-62 = system: HOP-62
U-251 = system: U-251
COLO 205 = system: COLO 205
K562 = system: K562
RXF 631 = system: RXF 631
HCC 2998 = system: HCC 2998
DLD-1 = system: DLD-1
EKVX = system: EKVX
OVCAR-5 = system: OVCAR-5
KM-20L2 = system: KM-20L2
CAKI-1 = system: CAKI-1
SF-268 = system: SF-268
UACC-62 = system: UACC-62
CCRF-CEM = system: CCRF-CEM
SK-OV-3 = system: SK-OV-3
HOP-18 = system: HOP-18
ACHN = system: ACHN
SNB-78 = system: SNB-78

For `Cc1cc(Cl)ccc1NC(=O)C(=O)Cc1occc(=O)c1O`, the GI50 (Malme-3M) was > 100 µM (inactive), the GI50 (SF-539) was > 100 µM (inactive) and the GI50 (UO-31) was > 100 µM (inactive). The GI50 (SF-295) was > 100 µM (inactive), the GI50 (HCT-116) was > 100 µM (inactive) and the GI50 (KM12) was > 100 µM (inactive). For the same compound, the GI50 (NCI-H522) was > 100 µM (inactive), the GI50 (M19-MEL) was > 100 µM (inactive) and the GI50 (HT-29) was > 100 µM (inactive). The GI50 (SNB-75) was > 100 µM (inactive), the GI50 (NCI-H23) was > 100 µM (inactive) and the GI50 (LOX IMVI) was > 100 µM (inactive). The GI50 (A498) was > 100 µM (inactive), the GI50 (DMS-273) was > 100 µM (inactive) and the GI50 (A549) was > 100 µM (inactive). For the same compound, the GI50 (786-0) was > 100 µM (inactive), the GI50 (MOLT-4) was > 100 µM (inactive) and the GI50 (HOP-92) was > 100 µM (inactive). The GI50 (SNB-19) was > 100 µM (inactive), the GI50 (LXFL 529) was > 100 µM (inactive) and the GI50 (NCI-H460) was > 100 µM (inactive). The GI50 (SK-MEL-28) was > 100 µM (inactive), the GI50 (HL-60) was > 100 µM (inactive) and the GI50 (NCI-H226) was > 100 µM (inactive). For the same compound, the GI50 (IGROV-1) was > 100 µM (inactive), the GI50 (RXF 393) was > 100 µM (inactive) and the GI50 (M14) was > 100 µM (inactive). For the same compound, the GI50 (OVCAR-4) was > 100 µM (inactive), the GI50 (SK-MEL-2) was > 100 µM (inactive) and the GI50 (SK-MEL-5) was > 100 µM (inactive). The GI50 (OVCAR-8) was > 100 µM (inactive), the GI50 (TK-10) was > 100 µM (inactive) and the GI50 (SN12C) was > 100 µM (inactive). For the same compound, the GI50 (RPMI-8226) was > 100 µM (inactive), the GI50 (XF498) was > 100 µM (inactive) and the GI50 (SW-620) was > 100 µM (inactive). The GI50 (DMS-114) was > 100 µM (inactive), the GI50 (HCT-15) was greater than 100 µM and the GI50 (UACC-257) was > 100 µM (inactive). The GI50 (SR) was > 100 µM (inactive), the GI50 (HOP-62) was > 100 µM (inactive) and the GI50 (U-251) was > 100 µM (inactive). For the same compound, the GI50 (COLO 205) was > 100 µM (inactive), the GI50 (K562) was > 100 µM (inactive) and the GI50 (RXF 631) was > 100 µM (inactive). For the same compound, the GI50 (HCC 2998) was > 100 µM (inactive), the GI50 (DLD-1) was > 100 µM (inactive) and the GI50 (EKVX) was > 100 µM (inactive). For the same compound, the GI50 (OVCAR-5) was > 100 µM (inactive), the GI50 (KM-20L2) was > 100 µM (inactive) and the GI50 (CAKI-1) was > 100 µM (inactive). The GI50 (SF-268) was > 100 µM (inactive), the GI50 (UACC-62) was > 100 µM (inactive) and the GI50 (CCRF-CEM) was > 100 µM (inactive). For the same compound, the GI50 (SK-OV-3) was > 100 µM (inactive), the GI50 (HOP-18) was > 100 µM (inactive) and the GI50 (ACHN) was > 100 µM (inactive). The GI50 (SNB-78) was > 100 µM (inactive).
